Experimental data: the NIST ThermoML archive (doi:10.1016/j.fluid.2016.09.021)

Conditions: Liquid, Vibrating tube method

CCCCCCCCCCCC [dodecane]
mass density [kg/m3]
Conditions | 393 K | 413 K | 433 K | 448 K | 468 K
2100 kPa | 678.1 | 662.8 | 646.8 | 634.6 | 617.8
3100 kPa | 679.2 | 664.2 | 648.5 | 636.7 | 619.9
4100 kPa | 680.4 | 665.6 | 650 | 638.2 | 622
5000 kPa | 681.6 | 666.9 | 651.6 | 640 | 624.1
10100 kPa | 687.5 | 673.7 | 659.5 | 648.5 | 634.1
20000 kPa | 697.8 | 685.1 | 672 | 662.4 | 649.5
30000 kPa | 706.6 | 694.9 | 682.8 | 674 | 661.8
40000 kPa | 714.7 | 703.6 | 692.1 | 684 | 672.8
50000 kPa | 722.2 | 711.4 | 700.6 | 692.9 | 682.6
60000 kPa | 728.7 | 718.7 | 708.3 | 701 | 691
69900 kPa | 735.1 | 725.4 | 715.6 | 708.3 | 698.9
79900 kPa | 741.1 | 731.7 | 722.1 | 715.3 | 706.3
89900 kPa | 746.8 | 737.3 | 728.3 | 721.9 | 712.9
99900 kPa | 752.2 | 743.2 | 734.3 | 727.9 | 719.2
109900 kPa | 757.2 | 748.5 | 739.8 | 733.5 | 725.1
119900 kPa | 762 | 753.7 | 745.1 | 739 | 731
129900 kPa | 766.8 | 758.5 | 750.3 | 744.2 | 736.3
134900 kPa | 769 | 760.9 | 752.7 | 746.7 | 738.9
137400 kPa | 770.2 | 762 | 753.9 | 747.9 | 740.2
